Measured values taken from patent publication US20260103438A1, “PROBES AND METHODS TO IDENTIFY LIGANDABLE FATTY ACYLATION SITES FOR THERAPEUTIC TARGET IDENTIFICATION” (The General Hospital Corporation, priority 2022, published 2026).

Experiments:
HEK293A cells = experiment: MS-based proteomics of proteins enriched by covalent probes; assay type: cell-based; conditions: for number of proteins collectively targeted by Compound A21, Compound B1 and Compound B4: HEK293A cells, Venn diagram (FIG. 4); for number of proteins enriched by the covalent probes also identified by SLC-ABPP: overlap with SLC-ABPP database (FIG. 5)
Description: For in-cell labeling, HEK293A cells with or without overexpression of proteins of interest were starved in DMEM medium with 10% dialyzed fetal bovine serum (DFBS) for 1 h and labeled using the covalent probes (10 μM) overnight. The cells were then washed and harvested using cold DPBS (14190250, Life Technologies). The cell pellets were isolated by centrifugation (500×g, 10 min) and lysed by TEA lysis buffer (50 mM TEA-HCl, pH 7.4, 150 mM NaCl, 1% Triton X-100, 0.2% SDS, 1×Protease inhibitor-EDTA free cocktail (05892791001, Roche), phosphatase inhibitor cocktail (P0044, Sigma-Aldrich)) on ice for 30 mins. The protein concentration was determined using Bio-Rad assay and adjusted to 1 mg/mL. For lysate labeling, HEK293A cells were grown in DMEM with 10% FBS. When confluence reached ˜90%, the cells were washed and harvested by cold DPBS. The cell pellets were isolated by centrifugation (500×g, 5 min) and resuspended with TEA lysis buffer (50 mM TEA-HCl, pH 7.4, 150 mM NaCl, 1% Triton X-100, IXProtease inhibitor-EDTA free cocktail, phosphatase inhibitor cocktail), incubated on ice for 15 mins, and then sonicated (7 s, 30% duty cycle, output setting=3). After centrifugation (17,000×g, 10 min), the supernatant is transferred to a clean tube. The protein concentration is determined using Bio-Rad assay and adjusted to 1 mg/mL. The lysate was then labeled with DMSO or probes (10 μM) at room temperature for 1 h with rotation. SDS was added to the lysate to a final concentration of 0.2% and the resultant solution retained for further use.
To 1.5 mg of proteomes from cell labeling or lysate labeling as described above were added 150 μL fresh prepared “click” mixture of TBTA (75 μL, 2 mM in 1:4 DMSO: t-BuOH), CuSO4 (30 μL, 50 mM in H2O), TCEP (30 μL, 50 mM in H2O) and Biotin-Azide (15 μL, 10 mM in DMSO). The samples were rotated at room temperature for 1 h. To these samples were then added MeOH (6 mL), CHCl3 (1.5 mL) and H2O (4.5 mL), and the resultant solution was mixed well. After centrifugation (17,000×g, 10 min), the aqueous layers were carefully aspirated leaving a protein disc between the organic and aqueous phases. The protein disc was washed with 6 mL of methanol and isolated by centrifugation (17,000×g, 10 min). The remaining protein pellet was collected and redissolved with 700 μL of 2% SDS in 0.1% PBST. The solution was diluted with 4.9 mL of 0.1% PBST and added 0.1% PBST-washed streptavidin agarose beads (150 μL, 1:1, sigma). After rotation at room temperature for 2 h, the beads were then pelleted by centrifugation (500×g, 5 min) and washed with 0.2% SDS in PBS (3×1 mL). The beads were transferred to a Protein Low-Binding tube and the immobilized proteins were digested by addition of urea (200 μL, 2.0 M in DPBS), CaCl2) (2.0 μL, 100 mM in H2O) and sequence grade porcine trypsin (2 μg; Promega). After digesting overnight at 37° C., the supernatant was transferred to a clean Protein Low-Binding, acidified with HCO2H (formic acid, 16 μL) and stored at −20° C. until the analyzed by LC-MS/MS.

TEAD2 = TEAD2 (Homo sapiens, UniProt Q15562); experiment: Labeling of TEAD2 by covalent probes in vitro (western blot); conditions: probe 1 μM, 30 mins, western blot (FIG. 1)
Description: (§1) Recombinant PCNA (12131-H07B, Sino Biological), RAP1A (PRO-848, Prospec-Tany TechnoGene), RRAS2 (PRO-728, Prospec-Tany TechnoGene), IDH1 (ab113858, Abcam), IDH1R132H (14132, Cayman) are obtained from commercially available source. Recombinant TEAD2 protein were made in-house. All the recombinant proteins contain a His-tag.
(§2) 500 ng of recombinant protein in 50 μL of MES buffer (50 mM, PH 6.4), was contacted with a solution of the covalent probe so that the final concentration of covalent probe in the reaction mixture is 10 μM of covalent probes. After incubation for 30 mins, 50 μL of sample mixture was treated with 5 μL of freshly prepared “click” mixture containing 100 μM TBTA (678937, Sigma-Aldrich), 1 mM TCEP (C4706, Sigma-Aldrich), 1 mM CuSO4 (496130, Sigma-Aldrich), 100 μM Biotin-Azide (1167-5, Click Chemistry Tools) and incubated for another 1 h. To the samples was then added 11 μL of 6×SDS loading buffer (BP-111R, Boston Bio-Products) and the resultant mixture was denatured at 95° C. for 5 mins. SDS-PAGE was used to analyze the samples. Labeling signal was detected by streptavidin-HRP antibody (1:3000, S911, Invitrogen). The total protein level was detected by primary anti-His-tag antibody (1:10000, MA1-21315, Invitrogen) and secondary anti-mouse antibodies (1:5000, 7076S, Cell Signaling).

Myc-TEAD1 C344S mutant = biological target: T1, Myc-TEAD1 C344S mutant (Homo sapiens, UniProt P28347, C359S); experiment: Labeling of transfected Myc-TEAD1 wild type or C344S mutant in HEK293A cells (streptavidin pulldown, western blot); assay type: cell-based; conditions: 10 μM overnight, C344S vs wild type (FIG. 3)
T1 construct: expressed in transfected cells; host or cells: HEK293A
Description: HEK293A cells was seed in 6 cm dishes overnight and transfected with plasmids using PEI reagent (1 μg/μL). Briefly, proteins of interest and PEI were diluted in serum-free DMEM medium in two tubes (DNA:PEI ratio=1:2). After standing still for 5 mins, the solutions were mixed well and allowed to stand unperturbed for an additional 20 mins. The mixture was then added to dishes directly.
For in-cell labeling, HEK293A cells with or without overexpression of proteins of interest were starved in DMEM medium with 10% dialyzed fetal bovine serum (DFBS) for 1 h and labeled using the covalent probes (10 μM) overnight. The cells were then washed and harvested using cold DPBS (14190250, Life Technologies). […] The protein concentration was determined using Bio-Rad assay and adjusted to 1 mg/mL. […] The protein concentration is determined using Bio-Rad assay and adjusted to 1 mg/mL. […]
100 μL of labeled proteome was treated with 10 μL of freshly prepared “click” mixture containing 1 mM TBTA, 10 mM TCEP, 10 mM CuSO4, 1 mM Biotin-Azide and incubated for 1 h at room temperature. […] The bound proteins were eluted with a buffer containing 10 mM EDTA (pH 8.2) and 95% formamide and analyzed with SDS-PAGE. […]

PCNA = PCNA (Homo sapiens, UniProt P12004); experiment: Auto-palmitoylation of recombinant PCNA with Alkyne Palmitoyl-CoA (western blot); conditions: indicated concentrations, 30 mins (FIG. 6A)
Description: as §1, §2

RAP1A = biological target: T2, RAP1A (Homo sapiens, UniProt P62834); experiment: Auto-palmitoylation of recombinant RAP1A with Alkyne Palmitoyl-CoA (western blot); conditions: indicated concentrations, 30 mins (FIG. 6B)
T2 sequence (P62834 1-184): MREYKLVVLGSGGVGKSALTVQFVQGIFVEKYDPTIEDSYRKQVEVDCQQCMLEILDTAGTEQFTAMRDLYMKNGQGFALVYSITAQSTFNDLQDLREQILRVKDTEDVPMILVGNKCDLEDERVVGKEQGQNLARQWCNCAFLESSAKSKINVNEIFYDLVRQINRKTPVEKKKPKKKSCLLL
Description: as §1, §2

RRAS2 = biological target: T3, RRAS2 (Homo sapiens, UniProt P62070); experiment: Auto-palmitoylation of recombinant RRAS2 with Alkyne Palmitoyl-CoA (western blot); conditions: indicated concentrations, 30 mins (FIG. 6C)
T3 sequence (P62070 1-204): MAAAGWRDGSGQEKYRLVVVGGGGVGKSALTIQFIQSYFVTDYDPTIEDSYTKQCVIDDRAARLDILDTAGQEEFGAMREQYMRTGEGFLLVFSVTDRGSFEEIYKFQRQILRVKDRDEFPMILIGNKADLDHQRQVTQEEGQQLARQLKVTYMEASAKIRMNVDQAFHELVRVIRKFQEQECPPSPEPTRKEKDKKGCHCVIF
Description: as §1, §2

IDH1WT = IDH1WT (Homo sapiens, UniProt O75874); experiment: Auto-palmitoylation of recombinant IDH1 WT with Alkyne Palmitoyl-CoA (western blot); conditions: indicated concentrations, 30 mins (FIG. 6D)
Chain of IDH1WT (O75874 whole entry): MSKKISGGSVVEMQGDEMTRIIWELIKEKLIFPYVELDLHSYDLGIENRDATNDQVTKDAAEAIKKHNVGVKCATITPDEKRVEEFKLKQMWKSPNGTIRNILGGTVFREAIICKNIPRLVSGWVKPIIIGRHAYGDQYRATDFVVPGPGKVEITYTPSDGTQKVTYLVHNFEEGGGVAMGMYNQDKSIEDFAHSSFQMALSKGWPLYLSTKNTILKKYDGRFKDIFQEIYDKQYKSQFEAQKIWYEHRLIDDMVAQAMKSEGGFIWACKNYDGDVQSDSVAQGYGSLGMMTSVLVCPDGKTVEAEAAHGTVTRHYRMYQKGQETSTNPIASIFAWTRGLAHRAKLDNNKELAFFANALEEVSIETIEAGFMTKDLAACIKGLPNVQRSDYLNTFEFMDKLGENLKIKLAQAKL
Description: as §1, §2

Chain of TEAD2 (Q15562 whole entry, species assumed): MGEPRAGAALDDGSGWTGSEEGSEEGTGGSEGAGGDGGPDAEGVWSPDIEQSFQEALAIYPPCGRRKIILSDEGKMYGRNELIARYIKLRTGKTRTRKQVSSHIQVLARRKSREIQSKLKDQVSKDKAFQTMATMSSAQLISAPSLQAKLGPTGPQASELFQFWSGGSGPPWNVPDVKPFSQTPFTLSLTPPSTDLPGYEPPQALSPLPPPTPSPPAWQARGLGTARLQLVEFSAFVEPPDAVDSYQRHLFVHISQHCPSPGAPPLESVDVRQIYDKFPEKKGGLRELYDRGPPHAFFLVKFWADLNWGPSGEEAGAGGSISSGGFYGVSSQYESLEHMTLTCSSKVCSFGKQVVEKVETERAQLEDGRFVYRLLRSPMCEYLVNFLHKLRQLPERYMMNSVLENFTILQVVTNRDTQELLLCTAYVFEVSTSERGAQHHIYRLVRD
Chain of PCNA (P12004 whole entry): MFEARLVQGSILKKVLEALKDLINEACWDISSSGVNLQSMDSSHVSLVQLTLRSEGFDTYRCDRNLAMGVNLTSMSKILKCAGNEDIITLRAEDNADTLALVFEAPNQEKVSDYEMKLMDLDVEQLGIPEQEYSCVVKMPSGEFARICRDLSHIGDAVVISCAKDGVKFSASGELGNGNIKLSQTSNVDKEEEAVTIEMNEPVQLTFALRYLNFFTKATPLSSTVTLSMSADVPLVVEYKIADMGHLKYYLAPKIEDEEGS
T1 sequence (P28347 16-426 C359S limits assumed): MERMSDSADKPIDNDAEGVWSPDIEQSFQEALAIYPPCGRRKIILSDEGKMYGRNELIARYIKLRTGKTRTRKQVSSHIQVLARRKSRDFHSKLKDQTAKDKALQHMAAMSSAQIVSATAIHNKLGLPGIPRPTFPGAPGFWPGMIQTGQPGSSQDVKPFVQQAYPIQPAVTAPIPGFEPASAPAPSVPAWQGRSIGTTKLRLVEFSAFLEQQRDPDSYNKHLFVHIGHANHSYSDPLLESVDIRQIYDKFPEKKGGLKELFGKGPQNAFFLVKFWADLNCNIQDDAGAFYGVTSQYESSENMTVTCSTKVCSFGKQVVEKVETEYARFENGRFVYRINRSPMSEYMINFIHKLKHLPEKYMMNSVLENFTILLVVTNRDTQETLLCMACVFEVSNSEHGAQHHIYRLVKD

SMILES | number of proteins collectively targeted by Compound A21, Compound B1 and Compound B4 (HEK293A cells) | number of proteins enriched by the covalent probes also identified by SLC-ABPP (HEK293A cells) [proteins] | labeling efficiency of TEAD2 (TEAD2) | also measured
C#CCCCCCCCCCCCCCCNC(=O)CBr [Compound B1, 2-bromo-N-(hexadec-15-yn-1-yl)acetamide] | One hundred and sixty | 191 | strong labeling efficiency | –
C#CCCCCCCCCCCCCNS(=O)(=O)C=C [Compound A64, N-(tetradec-13-yn-1-yl)ethenesulfonamide] | – | – | strong labeling efficiency | –
C#CCCCCCCCCCCCCCCNS(=O)(=O)C=C [Compound A26, N-(hexadec-15-yn-1-yl)ethenesulfonamide] | – | – | strong labeling efficiency | –
C#CCCCCCCCCCCCCCCNC(=O)CI [Compound A21, N-(hexadec-15-yn-1-yl)-2-iodoacetamide] | One hundred and sixty | 191 | strong labeling efficiency | –
C#CCCCCCCCCCCCCNC(=O)CI [Compound A63, 2-iodo-N-(tetradec-13-yn-1-yl)acetamide] | – | – | strong labeling efficiency | –
C#CCCCCCCCCCCCCNC(=O)CBr [Compound B4, 2-bromo-N-(tetradec-13-yn-1-yl)acetamide] | One hundred and sixty | 191 | strong labeling efficiency | effect of mutating cysteine 344 (C344S) on labeling of Myc-TEAD1 by the probe (Myc-TEAD1 C344S mutant): inhibited labeling
C#CCCCCCCCCCCCCCC(=O)SCCNC(=O)CCNC(=O)[C@H](O)C(C)(C)COP(=O)(O)OP(=O)(O)OC[C@H]1O[C@@H](n2cnc3c(N)ncnc32)[C@H](O)[C@@H]1OP(=O)(O)O [Alkyne Palmitoyl-CoA] | – | – | – | auto-palmitoylation (labeling) of PCNA (PCNA): auto-palmitoylated in a dose dependent manner; auto-palmitoylation (labeling) of RAP1A (RAP1A): auto-palmitoylated in a dose dependent manner; auto-palmitoylation (labeling) of RRAS2 (RRAS2): auto-palmitoylated in a dose dependent manner; auto-palmitoylation (labeling) of IDH1 WT (IDH1WT): auto-palmitoylated in a dose dependent manner
